Laboratory results reported in patent US7674807B2, “Heterocycle-substituted n-phenyl-phthalamide derivatives, related compounds and their use as insecticides” (Bayer CropScience AG, priority 2004, dated 2010).

Columns and labels:
Format in all cases: in vivo
[1] = tested on: Myzus persicae resistant to organophosphorous agents and carbamates; assay: Test against Myzus persicae resistant to organophosphorous agents and carbamates (spray on eggplant seedlings); conditions: 100 ppm concentration of the effective component; 7 days after spraying; green house of 28° C.
Procedure: About 30 bred Myzus persicae resistant to organophosphorous agents and carbamates were inoculated per 1 seedling of eggplant planted in a vinyl pot of 6 cm diameter. One day after the inoculation, a sufficient amount of a diluted aqueous solution of a prescribed concentration of an active compound prepared as mentioned above, was sprayed by using a spray gun. After spraying it was placed in a green house of 28° C. and the rate of death was calculated 7 days after the spraying. Test was repeated twice.

[2] = tested on: larva of Spodoptera litura; assay: Test against larva of Spodoptera litura (leaf dip, sweet potato leaves); conditions: 20 ppm concentration of the active component; third instar larvae; counted after 7 days; 25° C.
Method in brief: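 Sweet potato leaves were dipped in emulsified compound diluted with water, air-dried, and given to 10 third-instar larvae per dish at 25° C, with fresh leaves added on days 2 and 4. Mortality was counted after 7 days and averaged over 2 dishes.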

[3] = tested on: larva of Cnaphalocrocis medinalis Guenee; assay: Test against larva of Cnaphalocrocis medinalis Guenee (sprayed paddy rice foliage); conditions: 20 ppm concentration of the active component; second instar larvae; counted after 7 days; 25° C.
Method in brief: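 Potted rice (Tamanishiki) sprayed with aqueous dilutions of compound at the prescribed concentration; air-dried leaf pieces placed in dishes with five 2nd-instar larvae at 25° C, fresh treated foliage added at days 2 and 4. Mortality counted at day 7, averaged over 2 dishes.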

| Compound | controlling effect, rate of death [1] [%] | controlling effect, rate of death [2] [%] | controlling effect, rate of death [3] [%] |
| --- | --- | --- | --- |
| CSCC(C)NC(=O)c1c(Cl)cccc1C(=O)Nc1ccc(Cn2nc(C(F)(F)F)nc2C(F)(F)F)cc1C (centres unmarked) [compound 140] | 100 | 100 | 100 |
| CSCC(C)NC(=O)c1c(Cl)cccc1C(=O)Nc1ccc(Cn2nc(C(F)(F)F)nc2C(F)(F)F)cc1C (centres unmarked) [compound 141] | 100 | 100 | 100 |
| Cc1cc(Cn2nc(C(F)(F)F)nc2C(F)(F)F)ccc1NC(=O)c1cccc(Cl)c1C(=O)NC(C)CS(C)(=O)=O (centres unmarked) [compound 144] | 100 | 100 | 100 |
| CCSCC(C)NC(=O)c1c(Cl)cccc1C(=O)Nc1ccc(Cn2nc(C(F)(F)F)nc2C(F)(F)F)cc1C (centres unmarked) [compound 146] | 100 | 100 | 100 |
| CC[S+]([O-])CC(C)NC(=O)c1c(Cl)cccc1C(=O)Nc1ccc(Cn2nc(C(F)(F)F)nc2C(F)(F)F)cc1C (centres unmarked) [compound 147] | 100 | 100 | 100 |
| CSCC(C)NC(=O)c1c(Br)cccc1C(=O)Nc1ccc(Cn2nc(C(F)(F)F)nc2C(F)(F)F)cc1C (centres unmarked) [compound 178] | 100 | – | – |
| CSCC(C)NC(=O)c1c(I)cccc1C(=O)Nc1ccc(Cn2nc(C(F)(F)F)nc2C(F)F)cc1C (centres unmarked) [compound 239] | 100 | – | – |
| Cc1cc(Cn2nc(C(F)(F)F)nc2C(F)F)ccc1NC(=O)c1cccc(I)c1C(=O)NC(C)CS(C)(=O)=O (centres unmarked) [compound 243] | 100 | – | – |
| Cc1cc(C(C)n2nc(C(F)(F)F)nc2C(F)(F)F)ccc1NC(=O)c1cccc(Cl)c1C(=O)N[C@@H](C)C[S+](C)[O-] (some centres unmarked) [compound 569] | 100 | – | – |
| Cc1cc(Cn2cc(C(F)(F)C(F)(F)C(F)(F)F)c(C(F)(F)C(F)(F)C(F)(F)F)n2)ccc1NC(=O)c1cccc(Cl)c1C(=O)N[C@@H](C)CS(C)(=O)=O [compound 669] | – | 100 | 100 |
| CSC[C@H](C)NC(=O)c1c(I)cccc1C(=O)Nc1ccc(Cn2cc(C(F)(F)C(F)(F)C(F)(F)F)c(C(F)(F)C(F)(F)C(F)(F)F)n2)cc1C [compound 670] | – | 100 | 100 |
| Cc1cc(Cn2cc(C(F)(F)C(F)(F)C(F)(F)F)c(C(F)(F)C(F)(F)C(F)(F)F)n2)ccc1NC(=O)c1cccc(I)c1C(=O)N[C@@H](C)C[S+](C)[O-] (some centres unmarked) [compound 671] | – | 100 | 100 |
| Cc1cc(Cn2cc(C(F)(F)C(F)(F)C(F)(F)F)c(C(F)(F)C(F)(F)C(F)(F)F)n2)ccc1NC(=O)c1cccc(I)c1C(=O)N[C@@H](C)CS(C)(=O)=O [compound 672] | – | 100 | 100 |
| CSC[C@H](C)NC(=O)c1c(Cl)cccc1C(=O)Nc1ccc(Cn2nc(C(F)(F)C(F)(F)F)nc2C(F)(F)C(F)(F)F)cc1C [compound 681] | – | 100 | 100 |
| Cc1cc(Cn2nc(C(F)C(F)(F)F)nc2C(F)(F)F)ccc1NC(=O)c1cccc(Cl)c1C(=O)N[C@@H](C)C[S+](C)[O-] (some centres unmarked) [compound 797] | 100 | – | – |
| CSC[C@H](C)NC(=O)c1c(Cl)cccc1C(=O)Nc1ccc(Cn2nc(SC(F)(F)C(F)(F)C(F)(F)F)nc2C(F)(F)F)cc1C [compound 804] | – | 100 | 100 |
